Data published in US8895733B2 (Novartis AG, priority 2010, dated 2014).

Biological target: T1, Nav 1.7 (Homo sapiens, UniProt Q15858)
T1 construct: expressed in transfected cells
Assay: Whole-cell voltage clamp electrophysiology, automated patch clamp (marker c in Table of Examples)
Assay type: cell-based
Conditions: marker c = Automated patch clamp data; read-out: Nav 1.7 activity
Summary of the method: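 A voltage protocol weighted toward inactivated-state block was used to test compounds on stably expressing cells, with pulses from −65 mV holding to −10 mV test and −100 mV. Currents came from whole-cell automated patch-clamp recordings, either IonWorks Quattro or other automated instruments, usually in perforated-patch mode.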

T1 sequence (Q15858 whole entry): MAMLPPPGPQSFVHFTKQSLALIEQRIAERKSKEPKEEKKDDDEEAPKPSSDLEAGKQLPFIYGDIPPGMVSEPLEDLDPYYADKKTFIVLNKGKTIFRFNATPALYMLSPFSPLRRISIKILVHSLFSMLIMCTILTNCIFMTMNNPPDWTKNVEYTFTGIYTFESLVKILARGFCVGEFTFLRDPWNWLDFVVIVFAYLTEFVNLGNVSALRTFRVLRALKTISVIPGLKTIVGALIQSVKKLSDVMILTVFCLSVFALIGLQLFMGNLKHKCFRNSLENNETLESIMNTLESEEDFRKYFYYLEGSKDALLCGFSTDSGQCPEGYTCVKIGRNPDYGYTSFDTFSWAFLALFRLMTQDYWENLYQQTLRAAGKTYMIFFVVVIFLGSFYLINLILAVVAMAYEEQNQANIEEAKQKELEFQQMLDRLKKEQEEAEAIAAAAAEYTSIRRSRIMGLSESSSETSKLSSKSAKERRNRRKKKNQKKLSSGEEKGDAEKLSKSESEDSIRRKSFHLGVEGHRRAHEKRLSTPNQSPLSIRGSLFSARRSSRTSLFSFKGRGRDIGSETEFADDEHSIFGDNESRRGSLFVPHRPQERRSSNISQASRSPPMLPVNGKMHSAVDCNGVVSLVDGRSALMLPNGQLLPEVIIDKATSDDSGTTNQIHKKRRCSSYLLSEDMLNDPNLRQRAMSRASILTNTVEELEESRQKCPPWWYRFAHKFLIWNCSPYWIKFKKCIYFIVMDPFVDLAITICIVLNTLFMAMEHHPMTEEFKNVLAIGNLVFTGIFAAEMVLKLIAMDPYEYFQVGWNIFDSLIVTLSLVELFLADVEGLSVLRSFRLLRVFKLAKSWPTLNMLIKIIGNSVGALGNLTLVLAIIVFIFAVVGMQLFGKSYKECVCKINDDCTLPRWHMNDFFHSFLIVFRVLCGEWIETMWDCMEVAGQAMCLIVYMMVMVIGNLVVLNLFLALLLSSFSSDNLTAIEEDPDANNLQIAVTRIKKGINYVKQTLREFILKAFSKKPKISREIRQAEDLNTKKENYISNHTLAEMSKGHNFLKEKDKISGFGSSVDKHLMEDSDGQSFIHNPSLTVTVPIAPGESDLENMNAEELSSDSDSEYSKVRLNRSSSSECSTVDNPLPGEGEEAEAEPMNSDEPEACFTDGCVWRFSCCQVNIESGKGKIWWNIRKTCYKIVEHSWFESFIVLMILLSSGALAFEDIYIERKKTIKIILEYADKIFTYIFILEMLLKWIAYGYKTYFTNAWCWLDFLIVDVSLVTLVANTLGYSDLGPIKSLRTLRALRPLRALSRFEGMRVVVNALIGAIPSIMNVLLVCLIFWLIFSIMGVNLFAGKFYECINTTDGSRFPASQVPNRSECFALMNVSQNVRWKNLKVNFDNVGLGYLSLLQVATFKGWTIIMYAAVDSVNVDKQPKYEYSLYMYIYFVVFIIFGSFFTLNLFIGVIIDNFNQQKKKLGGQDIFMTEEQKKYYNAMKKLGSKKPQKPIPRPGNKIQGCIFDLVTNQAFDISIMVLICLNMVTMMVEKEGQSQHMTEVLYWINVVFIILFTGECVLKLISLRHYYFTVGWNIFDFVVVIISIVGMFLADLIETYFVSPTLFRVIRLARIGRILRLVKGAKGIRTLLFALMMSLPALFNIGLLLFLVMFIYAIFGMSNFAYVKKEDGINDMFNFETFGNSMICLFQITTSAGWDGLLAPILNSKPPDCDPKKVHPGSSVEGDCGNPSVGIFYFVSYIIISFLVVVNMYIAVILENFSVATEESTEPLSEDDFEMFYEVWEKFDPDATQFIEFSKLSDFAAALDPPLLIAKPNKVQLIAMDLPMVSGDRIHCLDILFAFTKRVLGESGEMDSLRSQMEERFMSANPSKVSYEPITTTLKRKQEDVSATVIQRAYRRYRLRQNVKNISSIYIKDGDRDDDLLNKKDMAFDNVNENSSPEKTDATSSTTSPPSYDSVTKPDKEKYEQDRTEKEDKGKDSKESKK

Row | SMILES | IC50 [µM]
1 | NC(=O)c1nc(-c2nc(N)nc(Nc3cccc(F)c3)n2)no1 [Example 223, 3-{4-amino-6-[(3-fluorophenyl)amino]-1,3,5-triazin-2-yl}-1,2,4-oxadiazole-5-carboxamide] | 6.5
2 | Nc1nc(Nc2cccc(F)c2)nc(-c2noc(C(=O)NC3CCC3)n2)n1 [Example 224, 3-{4-amino-6-[(3-fluorophenyl)amino]-1,3,5-triazin-2-yl}-N-cyclobutyl-1,2,4-oxadiazole-5-carboxamide] | 1.52
3 | Nc1nc(Nc2cccc(F)c2)nc(-c2noc(C(=O)NC3Cc4ccccc4C3)n2)n1 [Example 225, 3-{4-amino-6-[(3-fluorophenyl)amino]-1,3,5-triazin-2-yl}-N-(2,3-dihydro-1H-inden-2-yl)-1,2,4-oxadiazole-5-carboxamide] | 0.776
4 | Nc1nc(Nc2cccc(F)c2)nc(-c2noc(C(=O)NC3CCc4ccccc43)n2)n1 (stereo not shown) [Example 226, 3-{4-amino-6-[(3-fluorophenyl)amino]-1,3,5-triazin-2-yl}-N-(2,3-dihydro-1H-inden-1-yl)-1,2,4-oxadiazole-5-carboxamide] | 3.42
5 | Nc1nc(Nc2cccc(F)c2)nc(-c2noc(C(=O)N3CCCC3)n2)n1 [Example 227, 2-N-(3-fluorophenyl)-6-{5-[(pyrrolidin-1-yl)carbonyl]-1,2,4-oxadiazol-3-yl}-1,3,5-triazine-2,4-diamine] | 0.241
6 | Nc1nc(Nc2ccccc2)nc(-c2noc(C(=O)NC3CCC3)n2)n1 [Example 228, 3-[4-amino-6-(phenylamino)-1,3,5-triazin-2-yl]-N-cyclobutyl-1,2,4-oxadiazole-5-carboxamide] | 0.401
7 | Nc1nc(Nc2ccccc2)nc(-c2noc(C(=O)NC3Cc4ccccc4C3)n2)n1 [Example 229, 3-[4-amino-6-(phenylamino)-1,3,5-triazin-2-yl]-N-(2,3-dihydro-1H-inden-2-yl)-1,2,4-oxadiazole-5-carboxamide] | 9.19
8 | Nc1nc(Nc2ccccc2)nc(-c2noc(C(=O)N3Cc4ccccc4C3)n2)n1 [Example 230, 6-{5-[(2,3-dihydro-1H-isoindol-2-yl)carbonyl]-1,2,4-oxadiazol-3-yl}-2-N-phenyl-1,3,5-triazine-2,4-diamine] | 9.25
9 | Nc1nc(Nc2ccccc2)nc(-c2noc(NC3CCCC3)n2)n1 [Example 231, 6-[5-(cyclopentylamino)-1,2,4-oxadiazol-3-yl]-2-N-phenyl-1,3,5-triazine-2,4-diamine] | 3.21
10 | Nc1nc(Nc2cccc(F)c2)nc(-c2noc(C(=O)N3CCOCC3)n2)n1 [Example 232, 2-N-(3-fluorophenyl)-6-{5-[(morpholin-4-yl)carbonyl]-1,2,4-oxadiazol-3-yl}-1,3,5-triazine-2,4-diamine] | 9.33
11 | Nc1nc(Nc2cccc(F)c2)nc(-c2noc(C(=O)N[C@@H]3CCOC3)n2)n1 [Example 233, 3-{4-amino-6-[(3-fluorophenyl)amino]-1,3,5-triazin-2-yl}-N-[(3R)-oxolan-3-yl]-1,2,4-oxadiazole-5-carboxamide] | 5.66
12 | CC(C)NC(=O)c1nc(-c2nc(N)nc(Nc3cccc(F)c3)n2)no1 [Example 234, 3-{4-amino-6-[(3-fluorophenyl)amino]-1,3,5-triazin-2-yl}-N-(propan-2-yl)-1,2,4-oxadiazole-5-carboxamide] | 1.27
13 | Nc1nc(Nc2cccc(F)c2)nc(-c2noc(NC3CCCC3)n2)n1 [Example 235, 6-[5-(cyclopentylamino)-1,2,4-oxadiazol-3-yl]-2-N-(3-fluorophenyl)-1,3,5-triazine-2,4-diamine] | 1.69
14 | Nc1nc(Nc2cccc(F)c2)nc(-c2noc(N3CCCCC3)n2)n1 [Example 236, 2-N-(3-fluorophenyl)-6-[5-(piperidin-1-yl)-1,2,4-oxadiazol-3-yl]-1,3,5-triazine-2,4-diamine] | 0.406
15 | COC1CCN(c2nc(-c3nc(N)nc(Nc4cccc(F)c4)n3)no2)CC1 [Example 237, 2-N-(3-fluorophenyl)-6-[5-(4-methoxypiperidin-1-yl)-1,2,4-oxadiazol-3-yl]-1,3,5-triazine-2,4-diamine] | 3.99
16 | COc1cc(-c2nc(-c3nc(N)nc(Nc4ccccc4)n3)no2)ccn1 [Example 239, 6-[5-(2-methoxypyridin-4-yl)-1,2,4-oxadiazol-3-yl]-2-N-phenyl-1,3,5-triazine-2,4-diamine] | 5.87
17 | Nc1nc(Nc2cccc(F)c2)nc(-c2noc(-c3ncccc3F)n2)n1 [Example 240, 2-N-(3-fluorophenyl)-6-[5-(3-fluoropyridin-2-yl)-1,2,4-oxadiazol-3-yl]-1,3,5-triazine-2,4-diamine] | 0.172
18 | Nc1nc(Nc2ccc(F)cc2)nc(-c2noc(-c3nccs3)n2)n1 [Example 241] | 0.089
19 | Nc1nc(Nc2ccccc2)nc(-c2noc(NC3CCCCC3)n2)n1 [Example 242, 6-[5-(cyclohexylamino)-1,2,4-oxadiazol-3-yl]-2-N-phenyl-1,3,5-triazine-2,4-diamine] | 5.37

Row | SMILES | IC50 [µM]
20 | CC1CCN(c2nc(-c3nc(N)nc(Nc4ccccc4)n3)no2)CC1 [Example 243, 6-[5-(4-methylpiperidin-1-yl)-1,2,4-oxadiazol-3-yl]-2-N-phenyl-1,3,5-triazine-2,4-diamine] | 7.95
21 | Nc1nc(Nc2ccccc2)nc(-c2noc(C(=O)NC3CCc4ccccc43)n2)n1 (stereo not shown) [Example 244, 3-[4-amino-6-(phenylamino)-1,3,5-triazin-2-yl]-N-(2,3-dihydro-1H-inden-1-yl)-1,2,4-oxadiazole-5-carboxamide] | 2.97
22 | CC1CCN(c2nc(-c3nc(N)nc(Nc4cccc(F)c4)n3)no2)CC1 [Example 245, 2-N-(3-fluorophenyl)-6-[5-(4-methylpiperidin-1-yl)-1,2,4-oxadiazol-3-yl]-1,3,5-triazine-2,4-diamine] | 3.09
23 | Nc1nc(Nc2ccccc2)nc(-c2noc(N3CCC4(CC3)COC4)n2)n1 [Example 246, 6-(5-{2-oxa-7-azaspiro[3.5]nonan-7-yl}-1,2,4-oxadiazol-3-yl)-2-N-phenyl-1,3,5-triazine-2,4-diamine] | 9.36
24 | COc1ccccc1-c1nc(-c2nc(N)nc(Nc3ccccc3)n2)no1 [Example 247, 6-[5-(2-methoxyphenyl)-1,2,4-oxadiazol-3-yl]-2-N-phenyl-1,3,5-triazine-2,4-diamine] | 0.04
25 | COc1ccccc1-c1nc(-c2nc(N)nc(Nc3cccc(F)c3)n2)no1 [Example 248, 2-N-(3-fluorophenyl)-6-[5-(2-methoxyphenyl)-1,2,4-oxadiazol-3-yl]-1,3,5-triazine-2,4-diamine] | 0.376
26 | Nc1ccc(-c2nc(-c3nc(N)nc(Nc4cccc(F)c4)n3)no2)nc1 [Example 249, 6-[5-(5-aminopyridin-2-yl)-1,2,4-oxadiazol-3-yl]-2-N-(3-fluorophenyl)-1,3,5-triazine-2,4-diamine] | 9.03
27 | Nc1nc(Nc2cccc(F)c2)nc(-c2noc(C(=O)NC3COC3)n2)n1 [Example 250, 3-{4-amino-6-[(3-fluorophenyl)amino]-1,3,5-triazin-2-yl}-N-(oxetan-3-yl)-1,2,4-oxadiazole-5-carboxamide] | 9.85
28 | CN(c1ccccc1)c1nc(N)nc(-c2noc(-c3n[nH]cc3Br)n2)n1 [Example 251, 6-[5-(4-bromo-1H-pyrazol-3-yl)-1,2,4-oxadiazol-3-yl]-2-N-methyl-2-N-phenyl-1,3,5-triazine-2,4-diamine] | 2.53
29 | CN(c1ccccc1)c1nc(N)nc(-c2noc(-c3ccn(C)n3)n2)n1 [Example 252, 2-N-methyl-6-[5-(1-methyl-1H-pyrazol-3-yl)-1,2,4-oxadiazol-3-yl]-2-N-phenyl-1,3,5-triazine-2,4-diamine] | 2.38
30 | CN(c1ccccc1)c1nc(N)nc(-c2noc(-c3ccnn3C)n2)n1 [Example 253, 2-N-methyl-6-[5-(1-methyl-1H-pyrazol-5-yl)-1,2,4-oxadiazol-3-yl]-2-N-phenyl-1,3,5-triazine-2,4-diamine] | 4.56
31 | CN(c1ccccc1)c1nc(N)nc(-c2noc(-c3n[nH]cc3Cl)n2)n1 [Example 254, 6-[5-(4-chloro-1H-pyrazol-3-yl)-1,2,4-oxadiazol-3-yl]-2-N-methyl-2-N-phenyl-1,3,5-triazine-2,4-diamine] | 0.548
32 | CN(c1ccccc1)c1nc(N)nc(-c2noc(-c3cc(C(F)(F)F)[nH]n3)n2)n1 [Example 255, 2-N-methyl-2-N-phenyl-6-{5-[5-(trifluoromethyl)-1H-pyrazol-3-yl]-1,2,4-oxadiazol-3-yl}-1,3,5-triazine-2,4-diamine] | 6.45
33 | CN(c1ccccc1)c1nc(N)nc(-c2noc(-c3ccnn3CC(F)(F)F)n2)n1 [Example 257, 2-N-methyl-2-N-phenyl-6-{5-[1 - (2,2,2-trifluoroethyl)-1H-pyrazol-5-yl]-1,2,4-oxadiazol-3-yl}-1,3,5-triazine-2,4-diamine] | 3.25
34 | COc1ccc(NC(=O)c2nc(-c3nc(N)nc(N(C)c4ccccc4)n3)no2)cn1 [Example 258, 3-{4-Amino-6-[methyl(phenyl)amino]-1,3,5-triazin-2-yl}-N-(6-methoxypyridin-3-yl)-1,2,4-oxadiazole-5-carboxamide] | 1.85
35 | CN(c1ccccc1)c1nc(N)nc(-c2noc(C(=O)NCc3ccc(OCC(F)(F)F)nc3)n2)n1 [Example 259, 3-{4-amino-6-[methyl(phenyl)amino]-1,3,5-triazin-2-yl}-N-{[6-(2,2,2-trifluoroethoxy)pyridin-3-yl]methyl}-1,2,4-oxadiazole-5-carboxamide] | 0.422
36 | COc1ccc(CNC(=O)c2nc(-c3nc(N)nc(N(C)c4ccccc4)n3)no2)cn1 [Example 260, 3-{4-amino-6-[methyl(phenyl)amino]-1,3,5-triazin-2-yl}-N-[(6-methoxypyridin-3-yl)methyl]-1,2,4-oxadiazole-5-carboxamide] | 1.2
37 | CN(c1ccccc1)c1nc(N)nc(-c2noc(C(=O)Nc3ccc(C(F)(F)F)nc3)n2)n1 [Example 263, 3-{4-amino-6-[methyl(phenyl)amino]-1,3,5-triazin-2-yl}-N-[6-(trifluoromethyl)pyridin-3-yl]-1,2,4-oxadiazole-5-carboxamide] | 6.01
